# Experimental data: ChEMBL document CHEMBL5543142, “Discovery of YFJ-36: Design, Synthesis, and Antibacterial Activities of Catechol-Conjugated β-Lactams against Gram-Negative Bacteria” (J Med Chem, 2024)
# Columns and labels:
# hERG (KCNH2) = hERG (KCNH2) (Homo sapiens, UniProt Q12809); assay: Inhibition of hERG at 3 uM by whole cell Qpatch assay relative to control; format: toxicity
# [1] = AUC (0 to infinity) in ICR mouse at 20 mg/kg,iv administration measured upto 6 hrs by LC-MS/MS analysis; format: ADME, organism-based; settings: in vivo
# [2] = Clearance in ICR mouse at 20 mg/kg,iv administration measured upto 6 hrs by LC-MS/MS analysis; format: ADME, organism-based; settings: in vivo
# [3] = Half life in ICR mouse at 20 mg/kg,iv administration measured upto 6 hrs by LC-MS/MS analysis; format: ADME, organism-based; settings: in vivo
# [4] = MRT in ICR mouse at 20 mg/kg,iv administration measured upto 6 hrs by LC-MS/MS analysis; format: ADME, organism-based; settings: in vivo
# [5] = Volume of distribution at steady state in ICR mouse at 20 mg/kg,iv administration measured upto 6 hrs by LC-MS/MS analysis; format: ADME, organism-based; settings: in vivo, read-out: Vdss
# Acinetobacter baumannii [6] = assay: Antibacterial activity against multidrug-resistant Acinetobacter baumannii BM-2023-D2-010 infected in ICR mouse assessed as survival rate at 40 mg/kg,iv after 1 and 5 hour of post-infection measured after 7 days relative to control; format: functional; settings: time 7 day
# Acinetobacter baumannii [7] = assay: Antibacterial activity against multidrug-resistant Acinetobacter baumannii BM-2023-D2-010 infected in ICR mouse assessed as survival rate at 28 mg/kg,iv after 1 and 5 hour of post-infection measured after 7 days relative to control; format: functional; settings: time 7 day
# Acinetobacter baumannii [8] = assay: Antibacterial activity against multidrug-resistant Acinetobacter baumannii BM-2023-D2-010 infected in ICR mouse assessed as survival rate at 19.6 mg/kg,iv after 1 and 5 hour of post-infection measured after 7 days relative to control; format: functional; settings: time 7 day
# Acinetobacter baumannii [9] = assay: Antibacterial activity against multidrug-resistant Acinetobacter baumannii BM-2023-D2-010 infected in ICR mouse assessed as survival rate at 13.7 mg/kg,iv after 1 and 5 hour of post-infection measured after 7 days relative to control; format: functional; settings: time 7 day
# Acinetobacter baumannii [10] = assay: Antibacterial activity against multidrug-resistant Acinetobacter baumannii BM-2023-D2-010 infected in ICR mouse assessed as survival rate at 9.6 mg/kg,iv after 1 and 5 hour of post-infection measured after 7 days relative to control; format: functional; settings: time 7 day
# Acinetobacter baumannii [11] = assay: Antibacterial activity against multidrug-resistant Acinetobacter baumannii BM-2023-D2-010 infected in ICR mouse assessed as survival rate at 6.72 mg/kg,iv after 1 and 5 hour of post-infection measured after 7 days relative to control; format: functional; settings: time 7 day
# Acinetobacter baumannii [12] = assay: Antibacterial activity against multidrug-resistant Acinetobacter baumannii BM-2023-D2-010 infected in ICR mouse assessed as survival rate at 4.71 mg/kg,iv after 1 and 5 hour of post-infection measured after 7 days relative to control; format: functional; settings: time 7 day
# Acinetobacter baumannii [13] = assay: Antibacterial activity against multidrug-resistant Acinetobacter baumannii BM-2023-D2-010 infected in ICR mouse assessed as survival rate at 3.3 mg/kg,iv after 1 and 5 hour of post-infection measured after 7 days relative to control; format: functional; settings: time 7 day
# Sequence of hERG (KCNH2) (Q12809 whole entry): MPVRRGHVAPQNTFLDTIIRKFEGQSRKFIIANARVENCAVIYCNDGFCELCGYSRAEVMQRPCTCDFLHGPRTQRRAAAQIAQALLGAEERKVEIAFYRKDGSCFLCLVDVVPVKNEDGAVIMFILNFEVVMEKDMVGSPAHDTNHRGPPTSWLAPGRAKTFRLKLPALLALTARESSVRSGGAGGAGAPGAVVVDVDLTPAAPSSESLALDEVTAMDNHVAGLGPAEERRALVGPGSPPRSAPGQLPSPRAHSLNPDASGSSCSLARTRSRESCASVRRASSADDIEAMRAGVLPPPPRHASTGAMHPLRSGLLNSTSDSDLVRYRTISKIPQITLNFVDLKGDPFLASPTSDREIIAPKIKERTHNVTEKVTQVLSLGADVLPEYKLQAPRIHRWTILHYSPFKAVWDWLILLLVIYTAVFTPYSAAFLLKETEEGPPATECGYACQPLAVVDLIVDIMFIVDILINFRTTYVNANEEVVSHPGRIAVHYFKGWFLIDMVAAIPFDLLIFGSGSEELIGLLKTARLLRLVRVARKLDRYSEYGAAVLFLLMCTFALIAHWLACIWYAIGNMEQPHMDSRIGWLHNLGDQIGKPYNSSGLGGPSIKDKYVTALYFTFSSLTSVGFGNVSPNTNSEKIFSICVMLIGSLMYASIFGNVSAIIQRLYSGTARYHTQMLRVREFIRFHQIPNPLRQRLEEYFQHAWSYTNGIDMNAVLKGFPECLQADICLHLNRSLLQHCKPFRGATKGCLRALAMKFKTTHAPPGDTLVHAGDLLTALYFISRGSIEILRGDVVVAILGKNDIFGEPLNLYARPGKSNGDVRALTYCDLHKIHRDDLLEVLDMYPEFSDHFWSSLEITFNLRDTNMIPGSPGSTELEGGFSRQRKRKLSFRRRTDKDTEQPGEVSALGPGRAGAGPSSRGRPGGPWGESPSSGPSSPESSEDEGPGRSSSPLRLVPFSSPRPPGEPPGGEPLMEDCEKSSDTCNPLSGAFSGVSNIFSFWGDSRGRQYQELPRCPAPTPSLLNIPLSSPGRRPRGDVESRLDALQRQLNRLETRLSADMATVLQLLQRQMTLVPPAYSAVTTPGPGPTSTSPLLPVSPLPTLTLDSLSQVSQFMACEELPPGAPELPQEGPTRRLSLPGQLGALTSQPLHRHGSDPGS
Structure (SMILES),inhibition at 3 µM (hERG (KCNH2)) [%],AUC(0-inf) [1] [ng·h/mL],clearance [2] [mL/min/kg],half-life [3] [min],MRT [4] [min],Vd [5] [L/kg],Activity (Acinetobacter baumannii [6]) [%],Activity (Acinetobacter baumannii [7]) [%],Activity (Acinetobacter baumannii [8]) [%],Activity (Acinetobacter baumannii [9]) [%],Activity (Acinetobacter baumannii [10]) [%],Activity (Acinetobacter baumannii [11]) [%],Activity (Acinetobacter baumannii [12]) [%],Activity (Acinetobacter baumannii [13]) [%]
COc1cc(N)c(Cl)cc1C(=O)N[C@H]1CCN(CCCOc2ccc(F)cc2)C[C@H]1OC [REL-CISAPRIDE],97.8,,,,,,,,,,,,,
CC(C)(O/N=C(\C(=O)N[C@@H]1C(=O)N2C(C(=O)[O-])=C(C[N+]3(CCNC(=O)c4ccc(O)c(O)c4Cl)CCCC3)CS[C@H]12)c1csc(N)n1)C(=O)[O-].[Na+],,11600,29.2,16.2,16.8,0.488,100,100,100,100,70,50,20,0
